Assay results from the NIST ThermoML archive (doi:10.1016/j.jct.2007.08.005).

Experiment: xn = mol fraction of the nth substance listed
Settings: 308.15 K, 101 kPa, Liquid; for excess molar volume: Direct dilatometry; for speed of sound: Sing-around technique in a fixed-path interferometer

O=C1CCCN1 [2-pyrrolidinone] + OCCO
Settings | excess molar volume [m3/mol] | speed of sound [m/s] | viscosity [mPa·s]
x2 = 0.0118 | 4e-09 | – | –
x2 = 0.0271 | 1.1e-08 | – | –
x2 = 0.0351 | – | 1600.6 | 8.955
x2 = 0.0551 | 2.1e-08 | – | –
x2 = 0.0613 | – | 1601.1 | 9.037
x2 = 0.0711 | 2.4e-08 | – | –
x2 = 0.0816 | – | 1601.4 | 9.118
x2 = 0.0891 | 3.3e-08 | – | –
x2 = 0.1123 | 3.6e-08 | – | –
x2 = 0.1155 | – | 1601.9 | 9.255
x2 = 0.1356 | 4.4e-08 | – | –
x2 = 0.1467 | 5e-08 | – | –
x2 = 0.1641 | – | 1602.4 | 9.302
x2 = 0.1671 | 5.6e-08 | – | –
x2 = 0.1927 | 6e-08 | – | –
x2 = 0.2134 | – | 1602.9 | 9.358
x2 = 0.2287 | 6.9e-08 | – | –
x2 = 0.2682 | 8.3e-08 | – | –
x2 = 0.3038 | 9.4e-08 | – | –
x2 = 0.3111 | – | 1604.5 | 9.487
x2 = 0.3336 | 1.01e-07 | – | –
x2 = 0.3866 | – | 1605.8 | 9.654
x2 = 0.4018 | 1.12e-07 | – | –
x2 = 0.4305 | 1.16e-07 | – | –
x2 = 0.4785 | 1.21e-07 | – | –
x2 = 0.4965 | 1.22e-07 | – | –
x2 = 0.5068 | – | 1607.7 | 9.833
x2 = 0.5172 | 1.22e-07 | – | –
x2 = 0.543 | 1.23e-07 | – | –
x2 = 0.5614 | 1.22e-07 | – | –
x2 = 0.6039 | – | 1610 | 9.963
x2 = 0.607 | 1.2e-07 | – | –
x2 = 0.623 | 1.19e-07 | – | –
x2 = 0.6414 | 1.17e-07 | – | –
x2 = 0.6694 | 1.15e-07 | – | –
x2 = 0.6896 | 1.11e-07 | – | –
x2 = 0.7046 | – | 1613.5 | 10.04
x2 = 0.7154 | 1.08e-07 | – | –
x2 = 0.7437 | 1.02e-07 | – | –
x2 = 0.7579 | 1e-07 | – | –
x2 = 0.7775 | 9.6e-08 | – | –
x2 = 0.8015 | – | 1617.8 | 10.29
x2 = 0.8278 | 8.7e-08 | – | –
x2 = 0.8424 | 8.4e-08 | – | –
x2 = 0.8495 | – | 1620.3 | 10.5
x2 = 0.8713 | 7.5e-08 | – | –
x2 = 0.8846 | 7e-08 | – | –
x2 = 0.8963 | 6.6e-08 | – | –
x2 = 0.8974 | – | 1624.1 | 10.75
x2 = 0.9107 | 5.9e-08 | – | –
x2 = 0.9233 | – | 1626 | 10.83
x2 = 0.9249 | 5.2e-08 | – | –
x2 = 0.9349 | 4.4e-08 | – | –
x2 = 0.9458 | – | 1627.7 | 11.05
x2 = 0.9544 | 3.6e-08 | – | –
x2 = 0.961 | 2.7e-08 | – | –
x2 = 0.9731 | – | 1631 | 11.14
x2 = 0.9747 | 1.8e-08 | – | –
x2 = 0.9869 | 1.2e-08 | – | –
x2 = 0.9976 | 4e-09 | – | –
